Target: T1, P2X purinoceptor 7 (Homo sapiens, UniProt Q99572)
T1 sequence (Q99572 whole entry): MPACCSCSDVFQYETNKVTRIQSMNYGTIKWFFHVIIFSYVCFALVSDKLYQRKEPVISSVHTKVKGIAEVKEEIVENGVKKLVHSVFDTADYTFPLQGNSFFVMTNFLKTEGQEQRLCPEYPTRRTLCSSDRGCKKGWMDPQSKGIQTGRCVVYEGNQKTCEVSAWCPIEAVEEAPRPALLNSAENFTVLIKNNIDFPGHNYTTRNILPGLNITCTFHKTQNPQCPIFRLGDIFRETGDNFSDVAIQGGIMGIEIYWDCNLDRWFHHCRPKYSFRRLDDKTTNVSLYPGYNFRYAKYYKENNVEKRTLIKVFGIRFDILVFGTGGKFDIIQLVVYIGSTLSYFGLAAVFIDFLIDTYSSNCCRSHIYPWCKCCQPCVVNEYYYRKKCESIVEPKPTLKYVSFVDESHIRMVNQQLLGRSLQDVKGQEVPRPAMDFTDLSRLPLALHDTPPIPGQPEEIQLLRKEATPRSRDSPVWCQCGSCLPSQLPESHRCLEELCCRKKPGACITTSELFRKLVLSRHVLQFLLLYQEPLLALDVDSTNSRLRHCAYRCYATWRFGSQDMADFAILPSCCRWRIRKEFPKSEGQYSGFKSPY
Assay: Antagonist activity at P2X7 receptor in human THP1 cells assessed as inhibition of BzATP-induced YO-PRO-1 Iodide uptake measured every 30 secs for 1 hr by fluorescence assay
Assay type: cell-based
Conditions: not given

IC50	SMILES
Nd(Insoluble)	N=C(NCC12CC3CC(CC(C3)C1)C2)Nc1ccccc1

Same assay, conditions: read-out: IC50

SMILES	IC50 [µM]
S=C(NCC12CC3CC(CC(C3)C1)C2)Nc1ccccc1	2.42
N=C(NCc1ccccc1)NCC12CC3CC(CC(C3)C1)C2	> 10
O=C(NCC12CC3CC(CC(C3)C1)C2)Nc1ccccc1	4.96

Other lines, results leading:

IC50 [µM]	SMILES
4.54	O=C(NCc1ccccc1)NCC12CC3CC(CC(C3)C1)C2
3.38	O=C(NCc1cccnc1)NCC12CC3CC(CC(C3)C1)C2
5.95	O=C(NCc1ccccn1)NCC12CC3CC(CC(C3)C1)C2
6.75	O=C(NCc1ccncc1)NCC12CC3CC(CC(C3)C1)C2
4.24	S=C(NCc1ccccc1)NCC12CC3CC(CC(C3)C1)C2
6.41	O=C(NCCc1ccccc1)NCC12CC3CC(CC(C3)C1)C2

From ChEMBL document CHEMBL4028825, “Pharmacological evaluation of a novel series of urea, thiourea and guanidine derivatives as P2X7 receptor antagonists” (Bioorg Med Chem Lett, 2017)
